Data set [1] relates to HeLa cells. Conditions: cited from earlier work.
A short description of data set [2]: Absorption and emission properties, fluorescence quantum yield. Conditions: 20 mM HEPES, pH 7. It is filed as physicochemical. How it is done:
(§1) Millipore water was used to prepare all aqueous solutions. All spectroscopic measurements were performed in 20 mM HEPES buffer, pH 7. Absorption spectra were recorded using a Varian Cary 50 spectrophotometer (Walnut Creek, Calif.). Fluorescence spectra were recorded using a Photon Technology International Quanta Master 4 L-format scanning spectrofluorometer (Lawrenceville, N.J.) equipped with an LPS-220B 75-W xenon lamp and power supply, A-1010B lamp housing with integrated igniter, switchable 814 photon-counting/analog photomultiplier detection unit, and MD5020 motor driver. Samples for absorption and fluorescence measurements were contained in 1-cm×1-cm quartz cuvettes (1.4- or 3.5-mL volume, Starna, Atascadero, Calif.).
as §1, with “recorded on” for “recorded using”, “Creek, Calif.) and fluorescence” for “Creek, Calif.). Fluorescence”, “and emission” for “and fluorescence”, “cuvettes (1.5-mL” for “cuvettes (1.4- or 3.5-mL”, “Calif.). Fluorescence quantum yields were determined by reference to fluorescein in 0.1M NaOH (Φ=0.95).” for “Calif.).”

A short description of data set [3]: Kinetics of H2O2-mediated boronate deprotection. Conditions: pseudo-first-order conditions, 5 μM dye, 10 mM H2O2. How it is done:
(§2) MitoPY1 features two major visible region absorptions (λabs=489 nm, ε=14,300 M^−1 cm^−1; 510 nm, ε=14,200 M^−1 cm^−1) and a weak emission (λ=540 nm, Φ=0.019, FIG. S1) in 20 mM HEPES, pH 7. […] Kinetics measurements of the H2O2-mediated boronate deprotection were performed under pseudo-first-order conditions (5 μM dye, 10 mM H2O2), giving an observed rate constant of k=2.0(1)×10^−3 s^−1.

The nature of data set [4]: Turn-on fluorescence responses to a panel of biologically relevant ROS. Conditions: 20 mM HEPES, pH 7, 25° C. How it is done: Bars represent relative responses at 0, 5, 15, 30, 45, and 60 min after addition of each ROS. Data shown are for 10 mM O2- (with 10 μM catalase), 200 μM NO, and 100 μM for all other ROS. Data were acquired at 25° C. in 20 mM HEPES, pH 7, with excitation at λ=510 nm and emission collected between 518 and 750 nm.
as §2

The test system of data set [5] is HeLa cells. In kind it is cell-based. As to the method:
100 μM H2O2 was then added to one of the petri dishes. At 20 minutes, 50 nM MitoTracker Deep Red, 500 nM Lysotracker Red, and 1 μM Hoechst 33342 were added to both dishes. After an additional 20 minutes (40 minute stimulation total), the two coverslips were put in a single, new petri dish filled with fresh DPBS and confocal images were taken (3.2 μsec pixel time, 100% laser power for 514 line, 4.1% laser power for the 633 line, 26% laser power for the 543 line, scanned using 12-bit multi-track scan mode using a constant receiver gain). Shown above are signals from MitoPY1 (a), MitoTracker Deep Red (b), LysoTracker Red (c), an overlay of MitoTracker Deep Red and MitoPY1 (d), Hoechst (e), and a brightfield image (f) of cells not treated with H2O2, as well as signals from MitoPY1 (g), MitoTracker Deep Red (h), LysoTracker Red (i), an overlay of MitoTracker Deep Red and MitoPY1 (j), Hoechst (k), and a brightfield image (l) of cells treated with H2O2. A 20 μm scale bar shown for all images.
HeLa cells incubated with 5 μM MitoPY1 for 60 min at 37° C. and imaged with MitoPY1 (a), MitoTracker Red and Hoechst (overlay, b), and MitoPY1 with MitoTracker Red (overlay, c). HeLa cells incubated with 5 μM MitoPY1 for 60 min at 37° C. with 100 μM H2O2 added for the final 40 min and imaged with MitoPY1 (d), MitoTracker Red and Hoechst (overlay, e), MitoPY1 and MitoTracker Red (overlay, f), and brightfield (g) with 20 μm scale bar. HeLa cells incubated with 5 μM MitoPY1 for 60 min at 37° C. and imaged with MitoPY1 (h), MitoTracker Red and Hoechst (overlay, i), and MitoPY1 with MitoTracker Red (overlay, j). HeLa cells incubated for 24 h with 1 mM paraquat, then washed and incubated with 5 μM MitoPY1 for 60 min at 37° C. and imaged with MitoPY1 (k), MitoTracker Red and Hoechst (overlay, l), MitoPY1 and MitoTracker Red (overlay, m), and brightfield (n) with 20 μm scale bar.
HEK293 cells were cultured in DMEM (Invitrogen) supplemented with 10% fetal bovine serum (FBS, Hyclone) and glutamine (2 mM). CHO.K1 cells were cultured in DMEM with F-12 supplements, glutamax (Invitrogen), and 5% FBS. Cos-7 cells were cultured in DMEM with high glucose, glutamax, 10% FBS, and non-essential amino acids (Invitrogen). HeLa cells were cultured in DMEM with high glucose, glutamax, and 10% FBS. Two days before imaging, cells were passaged and plated on 18-mm glass coverslips. For all experiments, solutions of dyes (from 5 mM stocks in DMSO) were made in DBPS with calcium chloride and magnesium chloride (Sigma). H2O2 was added by bath application to the medium from a 100 mM aqueous stock. For paraquat treatment, HeLa cells were cultured as described above. One day prior to imaging, 1 mM paraquat was added to cells from a 0.5 M stock solution in water. An equal amount of water was added to control cells at the same time. Cells were then incubated at 37° C., 5% CO2. After 24 hours, the media was exchanged for DPBS with 5 μM dye and incubated for 1 hour.
Confocal fluorescence imaging studies were performed with a Zeiss LSM510 NLO Axiovert 200 laser scanning microscope and a 63× Achroplan IR water-immersion objective lens. Excitation of PY-loaded cells at 510 nm was carried out with an Ar laser and emission was collected using a META detector between 527-580 nm. MitoTracker Deep Red was excited with a 633-nm line and emission was collected between 666-698 nm. LysoTracker Red was excited with a 543-nm line and emission was collected between 580-644 nm. Excitation of Hoechst 33342 was carried out using a MaiTai two-photon laser at 780-nm pulses (mode-locked Ti:sapphire laser, Tsunami Spectra Physics) and emission was collected between 452-537 nm. Image analysis was performed in Adobe Photoshop.
MitoPY1 was tested for its ability to both target the mitochondria and respond to H2O2 in living biological systems. […] Again, co-staining with MitoTracker confirms that the dye is retained in the mitochondria and detects localized rises in H2O2 concentrations.

One may read the IC50 as the concentration at which inhibition is half-maximal. `C[n+]1ccc(-c2cc[n+](C)cc2)cc1` [paraquat]: the IC50 in the data set on HeLa cells [1] was 1020 µM.
Take `CC1(C)OB(c2ccc3c(c2)Oc2cc(N4CCN(CCCC[P+](c5ccccc5)(c5ccccc5)c5ccccc5)CC4)ccc2C32OC(=O)c3ccccc32)OC1(C)C.[I-]` (centres unmarked) [MitoPY1]: the “fluorescence quantum yield Φ” value in data set [2] (by reference to fluorescein) worked out at 0.019. For the same molecule, in data set [2] (λabs 489 nm), the “extinction coefficient ε at 489 nm” value is 14,300 M^−1 cm^−1. The “extinction coefficient ε at 510 nm” value in data set [2] (λabs 510 nm) was 14,200 M^−1 cm^−1. For the same molecule, in data set [3], the “observed rate constant k of H2O2-mediated boronate deprotection” value was 2.0(1)×10^−3 s^−1. Besides, in data set [4], the “selectivity of turn-on response for H2O2 over other ROS” value is “selective for H2O2 over ROS like superoxide, nitric oxide, and hydroxyl radical”. Also, the “cell viability during imaging” value with HeLa cells [5] is “cells are viable throughout the imaging experiments”. In addition, in the data set with HeLa cells [5] (5 μM probe, 1 h at 37° C.), the “fluorescence of probe-loaded cells without H2O2” value was “faint but measurable levels of fluorescence”. Besides, the “subcellular localization (co-staining with MitoTracker Deep Red, LysoTracker Red)” value with HeLa cells [5] (5 μM probe, 50 nM MitoTracker Deep Red, 500 nM LysoTracker Red) is “localized to the mitochondria”. The “fluorescence after addition of H2O2 compared to control cells” value in the data set with HeLa cells [5] (100 μM H2O2) is reported as “marked localized increase in fluorescence”. The “detection of endogenous mitochondrial H2O2 in paraquat-treated cells” value with HeLa cells [5] (1 mM paraquat 24 h, then 5 μM probe, compared to control cells) was “clear increases in mitochondrial-localized H2O2 levels”.

(Values after US8791258B2, “Pro-fluorescent probes” (The Regents of the University of California, priority 2008, dated 2014).)
